In patent US20230219951A1, “PYRIDINE-PYRIMIDINE DERIVATIVE, PREPARATION METHOD THEREFOR AND PHARMACEUTICAL USE THEREOF” (Jiangsu Hengrui Pharmaceuticals Co., Ltd., priority 2020, published 2023):

Assays:
[1] = target: T1, interaction between the KRAS protein subtype G12D and the SOS1 protein (Homo sapiens, UniProt Q07889); assay: Inhibition of the interaction between KRAS G12D and SOS1 protein (AlphaLISA/AlphaScreen); assay type: binding; conditions: KRAS G12D + GST-TEV-SOS1(564-1049) + GDP
T1 construct: GST-TEV-SOS1(564-1049) (Viva Biotech, SOS1-191010); purchased SOS1: Viva Biotech; KRAS: Shanghai Panchao Biotechnology Co., Ltd. SOS1-191010
T1 sequence (Q07889 564-1049): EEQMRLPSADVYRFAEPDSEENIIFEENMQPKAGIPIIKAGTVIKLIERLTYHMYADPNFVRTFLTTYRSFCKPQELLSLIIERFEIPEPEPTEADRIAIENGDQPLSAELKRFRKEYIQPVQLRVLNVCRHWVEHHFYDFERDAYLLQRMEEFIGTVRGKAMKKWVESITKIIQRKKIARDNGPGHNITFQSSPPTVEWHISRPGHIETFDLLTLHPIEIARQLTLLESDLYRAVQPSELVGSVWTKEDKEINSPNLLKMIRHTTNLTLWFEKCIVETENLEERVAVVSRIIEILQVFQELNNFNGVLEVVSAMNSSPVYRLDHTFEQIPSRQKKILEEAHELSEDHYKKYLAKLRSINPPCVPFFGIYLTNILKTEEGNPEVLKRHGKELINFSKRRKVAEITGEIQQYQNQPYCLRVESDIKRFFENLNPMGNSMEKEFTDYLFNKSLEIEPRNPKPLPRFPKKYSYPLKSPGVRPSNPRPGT
Experimental: (§1) Test Example 1: Inhibitory Ability of Compounds of the Present Disclosure to the Interaction Between the KRAS Protein Subtype G12D or G12V and the SOS1 Protein. The inhibitory ability of the compounds of the present disclosure to the interaction between the KRAS protein subtype G12D or G12V and the SOS1 protein was determined by the following method. The experimental method was briefly described as follows:
(§2) 1. The experimental buffer was prepared prior to the start of the experiment: 1×PBS+0.1% BSA+0.05% tween 20.
(§3) 2. KRAS G12D and KRAS-G12V proteins were labeled with biotin using the biotin labeling kit.
(§4) 1. Firstly, the biotin-labeled KRAS G12D or KRAS G12V protein was mixed and incubated with the SOS1 protein and GDP for later use.
(§5) 2. AlphaLISA glutathione acceptor beads and AlphaScreen streptavidin donor beads were mixed at a ratio of 1:1 to make the concentration of 40 μg/mL for later use.
(§6) 3. The compound was formulated with the experimental buffer to obtain 10 concentration points by 5-fold gradient dilution from an initial concentration of 40 μM.
(§7) 4. In the 384-well microplate, 10 μL of a mixture of KRAS G12D or KRAS G12V protein and SOS1 and GDP and 5 μL of the diluted compound were added to each well and incubated at room temperature for 30 min away from the light.
(§8) 5. Then, 5 μL of a mixture of AlphaLISA glutathione acceptor beads and AlphaScreen streptavidin donor beads was added to each well and incubated at room temperature for 60 min away from the light.
(§9) 6. The fluorescence values were read on a multi-mode microplate reader.
(§10) 7. IC50 values of the compounds were calculated using Graphpad Prism.

[2] = tested on: ERK phosphorylation of H358 cells; assay: Inhibition of ERK phosphorylation of H358 cells (HTRF pERK/total ERK); assay type: cell-based; conditions: Homo sapiens, NCI-H358, 1 h incubation, pERK/total ERK ratio
Experimental: This experiment is intended to evaluate the inhibition effect of the compounds of the present disclosure on the KRAS target (containing the G12C mutation) according to IC50 by determining the inhibition effect of the compounds on ERK phosphorylation of the cells.
H358 cells (ATCC, CRL-5807) were cultured in RPMI1640 (Hyclone, SH30809.01) complete medium containing 10% fetal bovine serum. On the first day of the experiment, the H358 cells were seeded into a 96-well plate at a density of 25,000 cells/well with a complete medium to form 190 μL of cell suspension per well. The plate was incubated overnight in a cell incubator at 37° C. with 5% CO2. The next day, 10 μL of test compound diluted in a gradient prepared with the complete medium was added to each well. The final concentrations of the compound were 9 concentration points obtained by 5-fold gradient dilution from 10 μM. A blank control containing 0.1% DMSO was set. The plate was incubated in a cell incubator at 37° C. with 5% CO2 for 1 h. 1 h later, the 96-well cell culture plate was taken out, the medium was removed by pipetting, 200 μL PBS (Shanghai BasalMedia Technologies Co., Ltd., B320) was added to each well, and the cells were washed once. PBS was removed by pipetting, 50 μL of lysis buffer (Cisbio, 64KL1FDF) containing a blocking reagent (Cisbio, 64KB1AAC) was added to each well, and the plate was shaken on a shaker at room temperature for 40 min for lysis. After lysis, the lysate was pipetted and mixed well, 16 μL of lysate was transferred from each well to each of two HTRF 96-well assay plates (Cisbio, 66PL96100), and then 4 μL of premixed phospho-ERK1/2 antibody solution (Cisbio, 64AERPEG) or 4 μL of premixed total-ERK1/2 antibody solution (Cisbio, 64NRKPEG) was added to each of the two plates. The microplate was sealed with a sealing membrane, centrifuged for 1 min in a microplate centrifuge, and incubated overnight at room temperature away from the light. On the third day, the fluorescence values at an excitation wavelength of 337 nm and at emission wavelengths of 665 nm and 620 nm were read using a PHERAstar multi-mode microplate reader (BMG Labtech, S/N 471-0361).
IC50 values for inhibitory activity of the compounds were calculated using Graphpad Prism software based on compound concentrations and pERK/total ERK ratio.

H358 cells = assay: Inhibition of proliferation of H358 cells (CellTiter-Glo 3D); assay type: cell-based; conditions: Homo sapiens, NCI-H358, low adsorption plate, 120 h
Experimental: This example is intended to evaluate the inhibition effect of the compounds of the present disclosure on the KRAS target (containing the G12C mutation) by testing the inhibition effect of the compounds of the present disclosure on the proliferation of H358 cells.
H358 cells (ATCC, CRL-5807) were cultured in a complete medium, namely RPMI1640 medium (Hyclone, SH30809.01) containing 10% fetal bovine serum (Corning, 35-076-CV). On the first day of the experiment, the H358 cells were seeded into a 96-well low adsorption plate (Coming, CLS7007-24EA) at a density of 1500 cells/well with a complete medium to form 90 μL of cell suspension per well. The plate was centrifuged at 2000 rpm for 5 min at room temperature and then incubated overnight in a cell incubator at 37° C. with 5% CO2. The next day, 10 μL of test compound diluted in a gradient prepared with the complete medium was added to each well. The final concentrations of the compound were 9 concentration points obtained by 5-fold gradient dilution from 10 μM. A blank control containing 0.1% DMSO was set. The plate was incubated in a cell incubator at 37° C. with 5% CO2 for 120 h. On the seventh day, the 96-well cell culture plate was taken out and 50 μL of CellTiter-Glo® 3D reagent (Promega, G9682) was added into each well. The plate was shaken at room temperature for 25 min, pipetted and mixed well, from which 50 μL of the mixture was transferred into a white impermeable 96-well plate (PE, 6005290). The luminescence signal values were read using a multi-mode microplate reader (PerkinElmer, VICTOR 3).
IC50 values for the inhibitory activity of the compounds were calculated using Graphpad Prism software.

[3] = target: T2, interaction between the KRAS protein subtype G12V and the SOS1 protein (Homo sapiens, UniProt Q07889); assay: Inhibition of the interaction between KRAS G12V and SOS1 protein (AlphaLISA/AlphaScreen); assay type: binding; conditions: KRAS G12V + GST-TEV-SOS1(564-1049) + GDP
T2 construct: GST-TEV-SOS1(564-1049) (Viva Biotech, SOS1-191010); purchased SOS1: Viva Biotech; KRAS: Shanghai Panchao Biotechnology Co., Ltd. SOS1-191010
T2 sequence (Q07889 564-1049): T1 sequence (Q07889 564-1049)
Experimental: as §1, §2, §3, §4, §5, §6, §7, §8, §9, §10

| SMILES | IC50 [1] [nM] | IC50 (H358 cells) [nM] | IC50 [3] [nM] | IC50 [2] [nM] |
| --- | --- | --- | --- | --- |
| Cc1nc(N[C@H](C)c2cccc(C(F)F)c2F)c2cc(N3CCOCC3)c(=O)[nH]c2n1 [Example 16, (R)-4-((1-(3-(difluoromethyl)-2-fluorophenyl)ethyl)amino)-2-methyl-6-morpholinopyrido[2,3-d]pyrimidin-7(8H)-one] | 39 | 97 | 136 | 218 |
| Cc1nc(N[C@H](C)c2cccc(C(F)(F)CO)c2F)c2cc(C3=CCOCC3)c(=O)[nH]c2n1 [Example 1, (R)-4-((1-(3-(1,1-difluoro-2-hydroxyethyl)-2-fluorophenyl)ethyl)amino)-6-(3,6-dihydro-2H-pyran-4-yl)-2-methylpyrido[2,3-d]pyrimidin-7(8H)-one] | 22 | 34 | 54 | 59 |
| Cc1nc(N[C@H](C)c2cccc(C(F)F)c2F)c2cc(C3CCN(C(=O)CC#N)CC3)c(=O)[nH]c2n1 [Example 17, (R)-3-(4-(4-((1-(3-(difluoromethyl)-2-fluorophenyl)ethyl)amino)-2-methyl-7-oxo-7,8-dihydropyrido[2,3-d]pyrimidin-6-yl)piperidin-1-yl)-3-oxopropanenitrile] | 28 | 65 | 30 | 79 |
| Cc1nc(N[C@H](C)c2cccc3c2OCC3(F)F)c2cc([C@]3(O)CC[C@H](O)CC3)c(=O)[nH]c2n1 (racemic) [Example 25-p2, rac-4-(((R)-1-(3,3-difluoro-2,3-dihydrobenzofuran-7-yl)ethyl)amino)-6-((1r,4R)-1,4-dihydroxycyclohexyl)-2-methylpyrido[2,3-d]pyrimidin-7(8H)-one] | 37 | 1020 | 65 | 489 |
| Cc1nc(N[C@H](C)c2cccc(C(F)F)c2F)c2cc(OC3CN(C(=O)CF)C3)c(=O)[nH]c2n1 [Example 27, (R)-4-((1-(3-(difluoromethyl)-2-fluorophenyl)ethyl)amino)-6-((1-(2-fluoroacetyl)azetidin-3-yl)oxy)-2-methylpyrido[2,3-R]pyrimidin-7(8H)-one] | 20 | 202 | 52 | 258 |
| COCC(=O)N1CCC(c2cc3c(N[C@H](C)c4cccc(C(F)F)c4F)nc(C)nc3[nH]c2=O)CC1 [Example 20, (R)-4-((1-(3-(difluoromethyl)-2-fluorophenyl)ethyl)amino)-6-(1-(2-methoxyacetyl)piperidin-4-yl)-2-methylpyrido[2,3-d]pyrimidin-7(8H)-one] | 19 | 118 | 60 | 78 |
| CC(=O)N1CC=C(c2cc3c(N[C@H](C)c4cc(N)cc(C(F)(F)F)c4)nc(C)nc3[nH]c2=O)CC1 [Example 4, (R)-6-(1-acetyl-1,2,3,6-tetrahydropyridin-4-yl)-4-((1-(3-amino-5-(trifluoromethyl)phenyl)ethyl)amino)-2-methylpyrido[2,3-d]pyrimidin-7(8H)-one] | 17 | 97 | 67 | 41 |

Second part, led by results:

| IC50 [1] [nM] | IC50 (H358 cells) [nM] | IC50 [3] [nM] | SMILES | IC50 [2] [nM] |
| --- | --- | --- | --- | --- |
| 175 | 716 | 187 | Cc1nc(N[C@H](C)c2cccc(C(F)F)c2F)c2cc([C@]3(O)CC[C@H](O)CC3)c(=O)n(C)c2n1 [Example 28-p2, 4-(((R)-1-(3-(difluoromethyl)-2-fluorophenyl)ethyl)amino)-6-((1r,4R)-1,4-dihydroxycyclohexyl)-2,8-dimethylpyrido[2,3-d]pyrimidin-7(8H)-one] | 937 |
| 15 | 62 | 54 | Cc1nc(N[C@H](C)c2cccc(C(F)F)c2F)c2cc(C3(O)CCN(C(=O)CC#N)CC3)c(=O)[nH]c2n1 [Example 21, (R)-3-(4-(4-((1-(3-(difluoromethyl)-2-fluorophenyl)ethyl)amino)-2-methyl-7-oxo-7,8-dihydropyrido[2,3-d]pyrimidin-6-yl)-4-hydroxypiperidin-1-yl)-3-oxopropanenitrile] | 87 |
| 40 | 213 | 112 | Cc1nc(N[C@H](C)c2cccc(C(F)F)c2F)c2cc([C@]3(O)CC[C@H](O)CC3)c(=O)[nH]c2n1 [Example 18-p2, 4-(((R)-1-(3-(difluoromethyl)-2-fluorophenyl)ethyl)amino)-6-((1r,4R)-1,4-dihydroxycyclohexyl)-2-methylpyrido[2,3-d]pyrimidin-7(8H)-one] | 222 |
| 100 | 243 | 97 | Cc1nc(N[C@H](C)c2cccc(C(F)F)c2F)c2cc([C@]3(O)CC[C@@H](O)CC3)c(=O)n(C)c2n1 [Example 28-p1, 4-(((R)-1-(3-(difluoromethyl)-2-fluorophenyl)ethyl)amino)-6-((1s,4S)-1,4-dihydroxycyclohexyl)-2,8-dimethylpyrido[2,3-d]pyrimidin-7(8H)-one] | 231 |
